# Assay results taken from the supplement of paper PMC10307832.
# Assays:
# Assay in all cases: relative viability (nuclei count vs DMSO), 5 days (fraction); higher = more cells survive
# Tosedostat + Bortezomib = compound: CC(C)C[C@@H](C(=O)N[C@H](C(=O)OC1CCCC1)c1ccccc1)[C@H](O)C(=O)NO [Tosedostat] + CC(C)C[C@H](NC(=O)[C@H](Cc1ccccc1)NC(=O)c1cnccn1)B(O)O [Bortezomib] (partner 0.002 µM)
# How it was run: (§1)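 Relative viability was taken as the ratio of nuclei in treated wells to nuclei in vehicle wells. Lung cancer cell lines in 1536-well plates received compounds by pin tool one day after seeding, either one drug alone or a fixed anchor-drug dose plus five library-drug doses (not always all listed) in √10 steps. Nuclei were counted on 4× images after 5 days of treatment, and values are medians of duplicate plates.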
# Tosedostat + Luminespib = compound: CC(C)C[C@@H](C(=O)N[C@H](C(=O)OC1CCCC1)c1ccccc1)[C@H](O)C(=O)NO [Tosedostat] + CCNC(=O)c1noc(-c2cc(C(C)C)c(O)cc2O)c1-c1ccc(CN2CCOCC2)cc1 [Luminespib] (partner 0.01 µM)
# How it was run: as §1
# Tosedostat + Crizotinib = compound: CC(C)C[C@@H](C(=O)N[C@H](C(=O)OC1CCCC1)c1ccccc1)[C@H](O)C(=O)NO [Tosedostat] + C[C@@H](Oc1cc(-c2cnn(C3CCNCC3)c2)cnc1N)c1c(Cl)ccc(F)c1Cl [Crizotinib] (partner 1 µM)
# How it was run: as §1
# Tosedostat + Vorinostat = compound: CC(C)C[C@@H](C(=O)N[C@H](C(=O)OC1CCCC1)c1ccccc1)[C@H](O)C(=O)NO [Tosedostat] + O=C(CCCCCCC(=O)Nc1ccccc1)NO [Vorinostat] (partner 1 µM)
# How it was run: as §1
cell line,measurement,setting,value
UMC-11,relative viability,Tosedostat + Bortezomib; first compound 0.02 µM,0.689
same,relative viability,Tosedostat + Bortezomib; first compound 0.06325 µM,0.523
same,relative viability,Tosedostat + Bortezomib; first compound 0.2 µM,0.752
same,relative viability,Tosedostat + Bortezomib; first compound 0.6325 µM,0.663
same,relative viability,Tosedostat + Bortezomib; first compound 2 µM,0.81
same,relative viability,Tosedostat + Luminespib; first compound 0.02 µM,1.01
same,relative viability,Tosedostat + Luminespib; first compound 0.06325 µM,0.999
same,relative viability,Tosedostat + Luminespib; first compound 0.2 µM,1.03
same,relative viability,Tosedostat + Luminespib; first compound 0.6325 µM,0.977
same,relative viability,Tosedostat + Luminespib; first compound 2 µM,1.12
same,relative viability,Tosedostat + Crizotinib; first compound 0.02 µM,0.688
same,relative viability,Tosedostat + Crizotinib; first compound 0.06325 µM,0.648
same,relative viability,Tosedostat + Crizotinib; first compound 0.2 µM,0.6
same,relative viability,Tosedostat + Crizotinib; first compound 0.6325 µM,0.559
same,relative viability,Tosedostat + Crizotinib; first compound 2 µM,0.459
same,relative viability,Tosedostat + Vorinostat; first compound 0.02 µM,0.459
same,relative viability,Tosedostat + Vorinostat; first compound 0.06325 µM,0.459
same,relative viability,Tosedostat + Vorinostat; first compound 0.2 µM,0.372
same,relative viability,Tosedostat + Vorinostat; first compound 0.6325 µM,0.388
same,relative viability,Tosedostat + Vorinostat; first compound 2 µM,0.391
